Assay results as given in a melting point compilation (Tetko et al.; mined from patent text by program, amines drawn as free bases though some values may be those of a salt).

| SMILES | melting point [°C] |
| --- | --- |
| [N-]=[N+]=Nc1nc(N=[N+]=[N-])nc(-c2ccccc2)n1 | 130 to 132 |
| CC1(C)CN=C2C(=O)c3cc(C#N)ccc3N2C1 | 178 to 184 |
| CC(C)c1nc(O)c(Br)c(O)n1 | > 250 |
| COc1cc(C=CC(=O)CCCCO)cc(OC)c1 | 78 to 80 |
| Cc1ccc(C)c(SCCC(=O)O)c1 | 100 to 102 |
| CC(C)(C)c1cc(I)c2c(c1)CNS(=O)(=O)O2 | 154 to 155 |
| CC(=O)N1CCN(C(=S)Nc2cc3sc(C(C)(C)C)nc3cc2N2CCC(C)CC2)CC1 | 187 to 190 |
| CN1CCN(c2cccc3c2C[C@H](NC(=O)c2ccc(N4CCSCC4)cc2)CC3)CC1 | 190 to 191 |
| C[Si](C)(C)CNc1ccc([N+](=O)[O-])cc1 | 120 |
| CCCNS(=O)(=O)CCCCl | 47.5 to 48 |
| OCCC1CC2CCN1CC2 (stereo unspecified) | 62 to 64 |
| O=[N+]([O-])c1c(Nc2ccon2)cnc2c1COCC2 | 143 to 145 |
| CCOc1ccc(-c2cn(C)c(SCC)n2)cc1 | 98.2 |
| C[Si](C)(C)/C=C/c1c(N)nc(C2CC2)nc1C(=O)O | 146 to 149 |
| O=C1C(=Cc2ccc(Cl)cc2)Cc2ccccc21 | 174 to 179 |
| CCCCOCCOc1ccc(-c2ccc3c(c2)C=C(C(=O)Nc2ccc4c(c2)nc(S(=O)Cc2cncn2CCC)n4C)CCN3CC(C)C)cc1 (stereo unspecified) | 150 to 151 |
| Cc1ccc(=O)n(-c2cc(-c3ccnc(Nc4cccc(Cl)c4)n3)ccn2)n1 | 187 to 189 |
| O=C1CCCCCCCCCCCCCCCCCCCCCC(O)C(=O)OCCCC1 (stereo unspecified) | 67 to 68 |
| O=C(O)c1ccc2c(=O)nc(-c3ccccn3)sc2c1 | 295 |
| Nc1c(F)c(N2CCCCCC2)c(F)c2c1c(=O)c(C(=O)O)cn2C1CC1 | 234 to 236 |
| O=c1oc(-c2ccc(OCc3cccnc3)cc2)cc(O)c1SCCc1ccccc1 | 178 to 179 |
| CNC(=O)Cc1cccc2ccoc12 | 138 to 142 |
| CCc1c(CCN2CCC(c3nsc4cc(F)ccc34)CC2)sc2c1CCN(C(C)=O)C2 | 156 to 160 |
| N#Cc1ccc(NCc2cc3c(cc2O)CCCO3)cc1 | 162 to 164 |

| SMILES | melting point [°C] |
| --- | --- |
| O=P(O)(O)C(O)(CCc1nn(-c2ccc(F)cc2)cc1-c1ccc(Cl)cc1)P(=O)(O)O | 223 |
| CC(C)(C)NCC(O)c1cc(F)c(N)cc1F (stereo unspecified) | 115 to 116 |
| [N-]=[N+]=NC1(O)CC(n2ccc(N)nc2=O)OC1CO (stereo unspecified) | 174 to 176 |
| Clc1ccc(C2(Cn3cncn3)CCC2)cc1 | 124 to 125 |
| Cn1c(Cc2cccc(C(F)(F)F)c2)nc2c(-c3cccc(C(=O)O)c3)cccc21 | 175 to 177 |
| Cc1ccc(OP(Oc2ccc(C)cc2C(C)(C)C)Oc2ccc(C)cc2C(C)(C)C)c(C(C)(C)C)c1 | 114 to 115 |
| COc1ccc(OC)c(C2(C(C)(C)O)CCN(C)CC2)c1 | 139 to 140 |
| CNCC(=O)N[C@@H](CCCNC(=N)N)C(=O)N[C@@H](CCCNC(=N)N)C(=O)N[C@@H](C)P(=O)(O)O | 220 |
| Cc1ccccc1-c1cc(F)cc2c1NC(CN)CO2 (stereo unspecified) | 78 |
| CN(C(=O)c1ccc2nsnc2c1)C1CCOCC1 | 106 to 108 |
| FC(F)(F)c1cccnc1OCc1ccnc2cc(Cl)ccc12 | 125 to 127 |
| N#Cc1cccc(C=Nc2ccc(F)cc2)c1 | 101 |
| OCc1ccc(/C=C/c2ccc(OC(F)(F)F)cc2)cc1 | 161 to 163 |
| Cc1cc(Cl)ccc1N=CN(C)SN(C)C=Nc1ccc(Cl)cc1C | 124 to 126 |
| OCCN1CCN(C2=Nc3ccccc3Oc3cscc32)CC1 | 187 to 192 |
| O=C(Nc1cnc2c(c1)nc1n2CCC1O)c1cc2cc(C(F)(F)F)cnc2n1Cc1cccc(F)c1 (single isomer, unassigned; (-)) | 279 to 280 |
| CNC(=O)C=Cc1ccc(C(=O)O)cc1 | 270 to 273 |
| CC(C)C(=O)c1c(C2CC2)nn2ccccc12 | 108 to 109 |
| c1cnc2ccc(Cn3nnc4ccc(-c5cnn(C6CCNCC6)c5)nc43)cc2c1 | 188 to 191 |
| COCC=C(NC(C)=O)C(=O)OC | 61 to 63 |
| O=Cc1cc(Cl)ccc1OC/C=C/CCl | 62 to 63 |
| CCOCc1nc2c(N)nc3ccc(O)cc3c2n1CC(C)(C)NS(C)(=O)=O | 252 to 254 |
| CC1CCN(C(=O)NCCc2ccc(S(=O)(=O)NC(=O)NC3CCC(C)C3)cc2)C(=O)C1 (stereo unspecified) | 145 to 147 |
| Cn1nc(-c2cnc(N)nc2-c2cccc(O)c2)ccc1=O | 285 |

| SMILES | melting point [°C] |
| --- | --- |
| O=C(CC(F)(F)F)N[C@H]1CC[C@H](CCN2CCN(c3nccc4c3CCO4)CC2)CC1 | 196 |
| Cn1ccnc1-c1ccc(/C=C/c2ccccc2F)cc1 | 60 to 61 |
| CC(=O)Nc1ccc(C=O)cc1Cl | 110 to 113 |
| Oc1c2c(c(O)c3ccccc13)CCCC2 | 210 to 212 |
| CN1CN(c2cccc([N+](=O)[O-])c2)c2ncccc2C1=O | 247 to 248 |
| O=[N+]([O-])c1cc(CBr)n(CCBr)n1 | 95 to 97 |
| O=c1cc(-c2ccncn2)nc2n1CCOCC2Br (racemic) | 176 to 178 |
| O=C(NC1CCCCC1)N1C(=O)C2(CCCCC2)NC12CCCCC2 | 106 to 109 |
| Nc1nccc(Oc2ccc3c(c2)CCCCN3C(=O)Nc2cccc(C(F)(F)F)c2)n1 | 207 |
| ON=C(Nc1ccc(C(F)(F)F)cc1)C1=NN(c2ccc(Cl)cc2)C(c2ccc(F)cc2)C1 (stereo unspecified) | 188 to 191 |
| CCCCCCCCOc1ccc(-c2ccc(CCl)cc2)cc1 | 101 |
| N#CC(C#N)(Cc1ccc(Cl)cc1)C1CCCCC1 | 108 |
| O=C(O)Cc1cc(Br)c(S(=O)(=O)c2ccc(O)c(I)c2)c(Br)c1 | 174 to 176 |
| Cc1c(C)c(C2CC(=O)C=C(O)C2)c(Cl)c2c1CCO2 (stereo unspecified) | 224 |
| c1ccc(-c2ccc(-c3cn4ccc5ccccc5c4n3)cc2)cc1 | 221 to 222 |
| O=C1c2ccccc2C(=O)N1c1ccc(N2C(=O)c3ccccc3C2=O)c(O)c1 | > 300 |
| CCn1cc(C(=O)O)c(=O)c2cc(F)c(N3CCNC(c4ccco4)C3)cc21 (stereo unspecified) | 198 |
| O=S1NC(Cc2cc3cc(F)ccc3o2)=NO1 (stereo unspecified) | 144 to 145 |
| O=CCCc1ccc2oc(Cc3ccc4ccccc4c3)nc2c1 | 81 to 82 |
| CCCCCCCCCCCCCCCCC(O)CNCCO (stereo unspecified) | 84.5 to 86 |
| CCCCc1cc2cc([N+](=O)[O-])ccc2[nH]1 | 105 |
| N#C[C@@H](Cc1ccccc1)Oc1c(Br)cc(-c2c3ccccc3c(Br)c3sc4ccccc4c23)cc1Br | 160 to 165 |

More lines, now with the values ahead:

| melting point [°C] | SMILES |
| --- | --- |
| 193 to 200 | NS(=O)(=O)c1ccc(N2CN(c3ccccc3)CC2=O)c(Br)c1 |
| 171 to 173 | O=C(NNC(=O)c1occc1-c1cccc(OCc2ccccc2)c1)c1ccc(O)c([N+](=O)[O-])c1 |
| 243 to 245 | COc1ccc(C2Sc3ccccc3N(CC(N)=O)C(=O)C2NC(=O)c2ccc3ccccc3c2)cc1 (stereo unspecified) |
| 195 to 196 | Cc1oc(-c2ccccc2)nc1CCOc1ccc(C=C2SC(=O)NC2=O)cn1 |
| 200 to 203 | COC(=O)c1ccc(Cn2c(=O)c3cc(C(=O)NCc4cccc(OC)c4)sc3n(C)c2=O)cc1OC |
| 172 to 174 | Cc1cccc2ncc(C(=O)NC3CCCCCC3)c(=O)n12 |
| 195 to 197 | COc1ccc(-c2ccc3c(c2)C=C(C(=O)Nc2ccc(CN(C)C4CCOCC4)cc2)CCS3(=O)=O)cc1OC |
| 128 | COc1ccc2c(c1)c(C)c(CC(C)C(=O)O)n2Cc1ccc(Cl)cc1 (stereo unspecified) |
| 99 to 100 | NC(=O)C(CCCCCOc1cccc([N+](=O)[O-])c1C=O)C1NCCc2ccccc21 (stereo unspecified) |
| 140 to 142 | CCc1ccc(CCOc2cccc(NC3SC(=O)NC3=O)c2)nc1 (stereo unspecified) |
| 162 to 163 | O=C1CCCc2nc3ccccc3c(NCc3ccccc3)c21 |
| 126 to 127 | COc1ccc(C(=O)N2CCc3cc(OCc4ccccc4)c(OC)cc3C2)cc1 |
| 168 to 171 | Cc1cc(-c2n[nH]c(Cc3ccccc3)n2)sc1C(=O)NCc1ccccc1 |
| 255 to 257 | COc1ccc(NC(=O)NCc2ccc3c(c2)CN(C2CCC(=O)NC2=O)C3=O)cc1 (stereo unspecified) |
| 149 to 150 | COc1cc(OC)c2c(=O)[nH]c(-c3cccc(N4CCN(C(C)C(N)=O)CC4)n3)nc2c1 (stereo unspecified) |
| 126 to 127 | O=C1CCCC(n2nc(-c3c(-c4ccccc4)nn4ccccc34)ccc2=O)C1 (stereo unspecified) |

| melting point [°C] | SMILES |
| --- | --- |
| 141 to 142 | Cc1cc2ccccc2nc1C(=O)O |
| 133 to 134 | CCOC(=O)C(=O)NNC(=O)c1cc2cccc(N(C)S(=O)(=O)c3cccs3)c2[nH]1 |
| 118 to 120 | CCCc1ccc(-c2ccc(C(=O)N3Cc4cccn4Cc4ccccc43)cc2)cc1 |
| 52 | CCCCOC(=O)c1ccc2ccc(C)nc2c1OC(=O)C(C)(C)C |
| 97 to 98 | CCOC(=O)Cc1ccc(-c2nc(COc3ccc(CO)cc3OC)c(C)o2)cc1 |
| 197 to 199 | CCOC(=O)C=Cc1cc(C=CC(N)=O)cc(C(O)c2ccc(F)cc2)c1 (stereo unspecified) |
| 163 to 165 | CCOC(=O)c1c(CN(CC)CC)nc2sc3cnccc3c2c1-c1ccc(OC)c(OC)c1 |
| 56 to 58 | CCOC(=O)CC(=O)CC(c1ccccc1)c1ccc(OC)c(OC2CCCC2)c1 (stereo unspecified) |
| 131 to 133 | CCCCc1ncc(C(C)CC(=O)O)n1Cc1ccccc1Cl (stereo unspecified) |
| 87 to 89 | Cc1cc(Oc2ccccc2C(F)(F)F)nn1C(=O)Nc1ccccc1 |
| 138 to 139 | C/C(=C\c1ccc(C(=O)OCCO)cc1)c1ccc2c(c1)C(C)(C)CCC2(C)C |
| 202 to 203 | CN1CCN(S(=O)(=O)c2ccc([C@@H](CC3CCCC3)C(=O)O)cc2)CC1 |
| 130 to 132 | CCOP(=O)(OCC)C(C)NC(=O)c1cc(C)cc(OC)c1C1=CC(=O)c2c(O)cccc2C1=O (stereo unspecified) |
| 194 to 197 | CC(COc1cccc2ccccc12)Nc1ccc(C(=O)O)cc1 (stereo unspecified) |
| 136 | CCOC(=O)C(=CNCC1CCCO1)C(=O)c1ccc(Br)cc1Cl (stereo unspecified) |
